# Measured values as given in US12145929B2, “Piperidine derivative and pharmaceutical composition for inhibiting autotaxin comprising same” (NEXTGEN BIOSCIENCE CO., LTD., priority 2021, dated 2024).
# Target: human Autotaxin protein (Homo sapiens, UniProt Q13822)
# Test: Evaluation of inhibitory activity against human Autotaxin protein (18:1 LysoPC substrate, choline assay kit, absorbance 570 nm)
# Assay type: biochemical
# Details: compound at 500 nM, 2 hours at 37° C.
# Procedure: The solution of each synthesized compound (80 uM, 100% dimethyl sulfoxide) was sequentially diluted 5 times with dimethyl sulfoxide to prepare 6 concentrations. Each concentration of compound was diluted two-fold with 1× test buffer (50 mM Tris-Cl (pH 8.0), 5 mM KCl, 1 mM CaCl2), 1 mM MgCl2, 140 mM NaCl, deionized water, 1 mg/mL BSA), and 1 uL (1.25% dimethyl sulfoxide) of this diluted mixture was dispensed into each well of a 96 well clear round bottom plate. 9 uL of 1× test buffer were added to each well, followed by the addition of 20 uL of 240 nM human Autotaxin protein (buffer: 50 mM Tris-HCl, pH 8.0, with 150 mM sodium chloride and 20% glycerol). 10 uL of sonicated 360 uM 18:1 LysoPC (diluted with 1× test buffer) were added to each well. The reaction was performed for 2 hours in a shaking incubator at 37° C., and a secondary reaction mixture (choline assay kit, KA1662) (65 uL of 1× test buffer: 1 uL of choline oxidase: 1 uL of dye probe) was prepared. 60 uL of the secondary reaction mixture were added to the reaction plate and reacted on a shaker for 30 minutes. Using a SpectraMax iD3 microplate reader, the absorbance was measured at a wavelength of 570 nm. The percentage of inhibition activity (% inhibition) was calculated by the Formula: (1−Absorbancetestgroup/Absorbancecontrol group)×100.
inhibition at 0.5 µM,inhibition (%) at 500 nM,Structure (SMILES)
99%,–,"c1ccc2c(c1)CC(Nc1ncc(-c3nnc(N4CCC(c5cnn[nH]5)CC4)o3)cn1)C2 [Example 1, 5-(5-(4-(1H-1,2,3-Triazol-5-yl)piperidin-1-yl)-1,3,4-oxadiazol-2-yl)-N-(2,3-dihydro-1H-inden-2-yl)pyrimidin-2-amine]"
100%,–,"Fc1ccc2c(c1)CC(Nc1ncc(-c3nnc(N4CCC(c5cnn[nH]5)CC4)o3)cn1)C2 (centres unmarked) [Example 2, 5-(5-(4-(1H-1,2,3-Triazol-5-yl)piperidin-1-yl)-1,3,4-oxadiazol-2-yl)-N-(5-fluoro-2,3-dihydro-1H-inden-2-yl)pyrimidin-2-amine]"
100%,–,"Clc1ccc2c(c1)CC(Nc1ncc(-c3nnc(N4CCC(c5cnn[nH]5)CC4)o3)cn1)C2 (centres unmarked) [Example 3, 5-(5-(4-(1H-1,2,3-Triazol-5-yl)piperidin-1-yl)-1,3,4-oxadiazol-2-yl)-N-(5-chloro-2,3-dihydro-1H-inden-2-yl)pyrimidin-2-amine]"
90%,–,"Brc1ccc2c(c1)CC(Nc1ncc(-c3nnc(N4CCC(c5cnn[nH]5)CC4)o3)cn1)C2 (centres unmarked) [Example 4, 5-(5-(4-(1H-1,2,3-Triazol-5-yl)piperidin-1-yl)-1,3,4-oxadiazol-2-yl)-N-(5-bromo-2,3-dihydro-1H-inden-2-yl)pyrimidin-2-amine]"
100%,–,"Fc1cc2c(cc1F)CC(Nc1ncc(-c3nnc(N4CCC(c5cnn[nH]5)CC4)o3)cn1)C2 [Example 5, 5-(5-(4-(1H-1,2,3-Triazol-5-yl)piperidin-1-yl)-1,3,4-oxadiazol-2-yl)-N-(5,6-difluoro-2,3-dihydro-1H-inden-2-yl)pyrimidin-2-amine]"
91%,–,"Clc1cc2c(cc1Cl)CC(Nc1ncc(-c3nnc(N4CCC(c5cnn[nH]5)CC4)o3)cn1)C2 [Example 6, 5-(5-(4-(1H-1,2,3-Triazol-5-yl)piperidin-1-yl)-1,3,4-oxadiazol-2-yl)-N-(5,6-dichloro-2,3-dihydro-1H-inden-2-yl)pyrimidin-2-amine]"
40%,–,"c1cnc2c(n1)CC(Nc1ncc(-c3nnc(N4CCC(c5cnn[nH]5)CC4)o3)cn1)C2 [Example 7, N-(5-(5-(4-(1H-1,2,3-triazol-5-yl)piperidin-1-yl)-1,3,4-oxadiazol-2-yl)pyrimidin-2-yl)-6,7-dihydro-5H-cyclopenta[b]pyrazin-6-amine]"
14%,–,"c1ccc2c(c1)CC(Nc1ccc(-c3nnc(N4CCC(c5cnn[nH]5)CC4)o3)nn1)C2 [Example 8, 6-(5-(4-(1H-1,2,3-Triazol-5-yl)piperidin-1-yl)-1,3,4-oxadiazol-2-yl)-N-(2,3-dihydro-1H-inden-2-yl)pyridazin-3-amine]"
81%,–,"c1ccc2c(c1)CC(Nc1ncc(-c3nnc(N4CCC(n5cncn5)CC4)o3)cn1)C2 [Example 9, 5-(5-(4-(1H-1,2,4-Triazol-1-yl)piperidin-1-yl)-1,3,4-oxadiazol-2-yl)-N-(2,3-dihydro-1H-inden-2-yl)pyrimidin-2-amine]"
75%,–,"Cc1ncn(C2CCN(c3nnc(-c4cnc(NC5Cc6ccccc6C5)nc4)o3)CC2)n1 [Example 10, N-(2,3-dihydro-1H-inden-2-yl)-5-(5-(4-(3-methyl-1H-1,2,4-triazol-1-yl)piperidin-1-yl)-1,3,4-oxadiazol-2-yl)pyrimidin-2-amine]"
99%,–,"CC1CC(c2cnn[nH]2)CCN1c1nnc(-c2cnc(NC3Cc4ccc(Br)cc4C3)nc2)o1 (centres unmarked) [Example 11, N-(5-bromo-2,3-dihydro-1H-inden-2-yl)-5-(5-(2-methyl-4-(1H-1,2,3-triazol-5-yl)piperidin-1-yl)-1,3,4-oxadiazol-2-yl)pyrimidin-2-amine]"
84%,–,"Brc1ccc2c(c1)CC(Nc1ccc(-c3nnc(N4CCC(c5cnn[nH]5)CC4)o3)cn1)C2 (centres unmarked) [Example 12, 5-(5-(4-(1H-1,2,3-Triazol-5-yl)piperidin-1-yl)-1,3,4-oxadiazol-2-yl)-N-(5-bromo-2,3-dihydro-1H-inden-2-yl)pyridin-2-amine]"
75%,–,"Brc1ccc2c(c1)CC(Nc1cnc(-c3nnc(N4CCC(c5cnn[nH]5)CC4)o3)cn1)C2 (centres unmarked) [Example 13, 5-(5-(4-(1H-1,2,3-Triazol-5-yl)piperidin-1-yl)-1,3,4-oxadiazol-2-yl)-N-(5-bromo-2,3-dihydro-1H-inden-2-yl)pyrazin-2-amine]"
5%,–,"Clc1cc(NC2Cc3ccc(Br)cc3C2)ncc1-c1nnc(N2CCC(c3cnn[nH]3)CC2)o1 (centres unmarked) [Example 14, 5-(5-(4-(1H-1,2,3-Triazol-5-yl)piperidin-1-yl)-1,3,4-oxadiazol-2-yl)-N-(5-bromo-2,3-dihydro-1H-inden-2-yl)-4-chloropyridin-2-amine]"
100%,–,"Clc1cc(Cl)cc(CNc2ncc(-c3nnc(N4CCC(c5cnn[nH]5)CC4)o3)cn2)c1 [Example 15, 5-(5-(4-(1H-1,2,3-Triazol-5-yl)piperidin-1-yl)-1,3,4-oxadiazol-2-yl)-N-(3,5-dichlorobenzyl)pyrimidin-2-amine]"
–,84%,"Clc1cc(Cl)cc(CCNc2ncc(-c3nnc(N4CCC(c5cnn[nH]5)CC4)o3)cn2)c1 [Example 16, 5-(5-(4-(H-1,2,3-Triazol-5-yl)piperidin-1-yl)-1,3,4-oxadiazol-2-yl)-N-(3,5-dichlorophenethyl)pyrimidin-2-amine]"
92%,–,"O=C(CCc1cnc(NC2Cc3ccccc3C2)nc1)N1CCC(c2cnn[nH]2)CC1 [Example 17, 1-(4-(1H-1,2,3-Triazol-5-yl)piperidin-1-yl)-3-(2-((2,3-dihydro-1H-inden-2-yl)amino)pyrimidin-5-yl)propan-1-one]"
85%,–,"O=C(CCc1cnc(NC2Cc3ccccc3C2)nc1)N1CCC(c2cnc[nH]2)CC1 [Example 18, 1-(4-(1H-Imidazol-5-yl)piperidin-1-yl)-3-(2-((2,3-dihydro-1H-inden-2-yl)amino)pyrimidin-5-yl)propan-1-one]"
43%,–,"O=C(CCCc1nnc(NC2Cc3ccccc3C2)s1)N1CCC(c2cnn[nH]2)CC1 [Example 19, 1-(4-(1H-1,2,3-Triazol-5-yl)piperidin-1-yl)-4-(5-((2,3-dihydro-1H-inden-2-yl)amino)-1,3,4-thiadiazol-2-yl)butan-1-one]"
14%,–,"O=C(CCCc1nnc(NC2Cc3ccccc3C2)s1)N1CCC(c2cnc[nH]2)CC1 [Example 20, 1-(4-(1H-Imidazol-5-yl)piperidin-1-yl)-4-(5-((2,3-dihydro-1H-inden-2-yl)amino)-1,3,4-thiadiazol-2-yl)butan-1-one]"
64%,–,"O=C(CCCc1nnc(NC2Cc3ccccc3C2)o1)N1CCC(c2cnn[nH]2)CC1 [Example 21, 1-(4-(1H-1,2,3-Triazol-5-yl)piperidin-1-yl)-4-(5-((2,3-dihydro-1H-inden-2-yl)amino)-1,3,4-oxadiazol-2-yl)butan-1-one]"
17%,–,"O=C(CCCc1nnc(NC2Cc3ccccc3C2)o1)N1CCC(c2cnc[nH]2)CC1 [Example 22, 1-(4-(1H-Imidazol-5-yl)piperidin-1-yl)-4-(5-((2,3-dihydro-1H-inden-2-yl)amino)-1,3,4-oxadiazol-2-yl)butan-1-one]"
20%,–,"O=C(COCc1nnc(NC2Cc3ccccc3C2)s1)N1CCC(c2cnn[nH]2)CC1 [Example 23, 1-(4-(1H-1,2,3-Triazol-5-yl)piperidin-1-yl)-2-((5-((2,3-dihydro-1H-inden-2-yl)amino)-1,3,4-thiadiazol-2-yl)methoxy)ethanone]"
